Reference: US9408395B2, “Process for potentiating the production of Lingzhi mushroom (Ganoderma lucidum) substances and antifungal activity thereof” (UNIVERSIDAD DE ANTIOQUIA (UDEA), priority 2013, dated 2016)

Legend:
Mycosphaerella fijiensis [1] = assay: Mycelium growth inhibition in microplate format, protein extracts; assay type: cell-based; details: 0.3 ppm
Experimental: In order to obtain protein extracts, the optimized protein extraction protocol was followed (Item 4.1.2). Later, the protein pellet was re-suspended in 1 ml PBS pH 7.4 buffer, 200 μL DMSO and 200 μL glycerol. The protein extracts of each LED were quantified by the Bradford method (Bio-Rad Protein Assay®) (61). […] The extracts were diluted in pH 7.4 PBS phosphate buffer.
The Mycosphaerella fijiensis-inoculated microplates and also treated with the different extracts were incubated. Readings were performed according to the Standard Norm. Each concentration was assayed in three repetitions, including three experiment replicas (63, 64). Thereafter, the determination of the growth inhibition percentage for each concentration of each protein extract used was performed (65-67).
Through the use of logic models (non linear regressions) the relationship between the concentration logarithm of each antifungal (x axis) versus inhibition percentage (y axis) was established thus obtaining the respective equations, for EC50 analysis for each treatment at 5 concentrations, in order to determine the necessary concentration of each extract to reduce the population growth by 50% at an in vitro level.
In order to determine which the best protein extract for Mycosphaerella fijiensis mycelium growth inhibition was, a statistical analysis using a category factorial design was performed. […]

Mycosphaerella fijiensis [2] = assay: Agar diffusion assay (plate diffusion method); assay type: cell-based; details: compared to other treatments and growth control
Experimental: In order to corroborate antifungal activity of each extract, said activity was assayed in Petri dishes using the plate diffusion method; for said purpose, 20 ml of PDA medium were dispensed for a final thickness of 4 mm. After homogenizing inocula, deep plating was performed wherein each plate was inoculated using 2×10^4 Mycosphaerella fijiensis mycelium fragments. Afterwards, using a 0.5 mm internal diameter punch, wells were made wherein 10 or 20 μL of each extract were deposited, in addition to the inhibition positive control using Mancozeb and a negative control using a 1:1 ethanol:DMSO mix. The plates were incubated in darkness conditions, 25±1° C. for seven days.

Q: With Mancozeb as the substance, how does the “Inhibition of Mycosphaerella fijiensis growth” value (Mycosphaerella fijiensis [1]) read?
A: 72%

Q: What about the “Mycelium growth inhibition (in words)” value (Mycosphaerella fijiensis [2]) of the same substance?
A: entirely inhibited
